In US7749992B2, “Compounds and methods for treating dislipidemia” (Eli Lilly and Company, priority 2003, dated 2010):

These molecules were tested against T1, human CETP (Homo sapiens, UniProt P11597) (assay: In vitro CETP inhibitor assay: SPA assay). Conditions: CETP produced by AV-12 cells expressing human CETP; [3H]cholesterol ester transfer from HDL to biotinylated LDL; 30-minute incubation at 37 C; HEPES-NaCl based buffer; read-out: Inhibition of CETP Activity (SPA assay) IC50.
T1 construct: made in house; host or cells: AV-12 cells (engineered to express human CETP)
T1 sequence (P11597 18-493): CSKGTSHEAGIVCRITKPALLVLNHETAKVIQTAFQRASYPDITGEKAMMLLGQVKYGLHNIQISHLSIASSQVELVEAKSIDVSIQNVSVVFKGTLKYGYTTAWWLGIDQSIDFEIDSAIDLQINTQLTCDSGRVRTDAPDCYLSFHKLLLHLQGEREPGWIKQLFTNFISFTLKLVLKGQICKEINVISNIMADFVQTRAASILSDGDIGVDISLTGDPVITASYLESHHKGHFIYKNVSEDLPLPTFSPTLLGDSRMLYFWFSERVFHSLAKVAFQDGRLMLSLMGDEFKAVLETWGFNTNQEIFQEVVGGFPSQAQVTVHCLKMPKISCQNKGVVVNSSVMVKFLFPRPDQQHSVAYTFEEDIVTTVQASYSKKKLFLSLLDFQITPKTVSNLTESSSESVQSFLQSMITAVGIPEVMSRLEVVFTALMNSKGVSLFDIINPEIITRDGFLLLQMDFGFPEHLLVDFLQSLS
Type: biochemical
Description: An in vitro scintillation proximity assay (SPA) has been used to test the ability of compounds of this invention to inhibit the transfer of radiolabeled cholesterol esters between HDL and LDL. This assay monitors the inhibition of the transfer of [^3H]cholesterol esters from HDL (Amersham) to biotinylated LDL (Amersham) by a CETP source. CETP produced by AV-12 cells that have been created to express human CETP has been used to mediate the transfer. After a 30-minute incubation at 37 C in which the radiolabeled cholesterol ester is transferred in a HEPES-NaCl based buffer, the reaction is stopped and the biotinylated LDL is bound to streptavidin/scintillant coated SPA beads (Amersham). Then the radioactive signal is measured in a Packard 96-well scintillation TopCounter with window settings fully open. Compounds of this invention can be added to the reaction mixture in an appropriate solvent to assess their ability to inhibit the transfer of the radiolabeled cholesterol esters by CETP, represented by a decrease in radioactive signal. The activity transferred in the reaction mixtures with control solvents is rated as 100% transfer. The compound concentration at which the activity is midway between 100% and the lowest recorded activity is indicated as the IC50 value. A three-parameter fixed top logistic curve-fitting algorithm is used to generate the IC50 value.
Work on `CC(=O)N(Cc1cc(C(F)(F)F)cc(C(F)(F)F)c1)C1CCCN(C(=O)OC(C)C)c2c1ccc1c2CCC1` (racemic) [Example 129, (+/−)-6-[Acetyl-(3,5-bis-trifluoromethyl-benzyl)-amino]-2,3,6,7,8,9-hexahydro-1H-10-aza-cyclohepta[e]indene-10-carboxylic acid isopropyl ester] yielded an IC50 of 0.054 µM.
In the case of `CC(=O)N(Cc1cc(C(F)(F)F)cc(C(F)(F)F)c1)C1CCCN(C(=O)OC(C)C)c2ccccc21` (stereo not shown) [Example 1, 5-[Acetyl-(3,5-bis-trifluoromethyl-benzyl)-amino]-2,3,4,5-tetrahydro-benzo[b]azepine-1-carboxylic acid isopropyl ester], the IC50 is reported as 0.293 µM.
`CC(=O)N(Cc1cc(C(F)(F)F)cc(C(F)(F)F)c1)[C@H]1CCCN(C(=O)OC(C)C)c2cc(C(F)(F)F)c(C)cc21` [Example 111, (S)-5-[Acetyl-(3,5-bis-trifluoromethyl-benzyl)-amino]-7-methyl-8-trifluoromethyl-2,3,4,5-tetrahydro-benzo[b]azepine-1-carboxylic acid isopropyl ester] gave an IC50 of 0.068 µM.
With `CC(=O)N(Cc1cc(C(F)(F)F)cc(C(F)(F)F)c1)C1CCCN(C(=O)OC(C)(C)C)c2cc(C(F)(F)F)c(C)cc21` (stereo not shown) [Example 117, 5-[Acetyl-(3,5-bis-trifluoromethyl-benzyl)-amino]-7-methyl-8-trifluoromethyl-2,3,4,5-tetrahydro-benzo[b]azepine-1-carboxylic acid tert-butyl ester] the IC50 was 0.065 µM.
For `CC(=O)N(Cc1cc(C(F)(F)F)cc(C(F)(F)F)c1)[C@H]1CCCN(C(=O)OC(C)(C)C)c2cc(C(F)(F)F)c(C)cc21` [Example 119, (S)-5-[Acetyl-(3,5-bis-trifluoromethyl-benzyl)-amino]-7-methyl-8-trifluoromethyl-2,3,4,5-tetrahydro-benzo[b]azepine-1-carboxylic acid tert-butyl ester], the IC50 was 0.042 µM.
Molecule `CC(=O)N(Cc1cc(C(F)(F)F)cc(C(F)(F)F)c1)C1CCCN(C(=O)OC2CCCC2)c2cc(OC(F)(F)F)c(C)cc21` (stereo not shown) [Example 182, 5-[Acetyl-(3,5-bis-trifluoromethyl-benzyl)-amino]-7-methyl-8-trifluoromethoxy-2,3,4,5-tetrahydro-benzo[b]azepine-1-carboxylic acid cyclopentyl ester] has an IC50 of 0.191 µM.

These molecules were tested on transgenic mice that express both human CETP and human apolipoprotein A-1 (assay: Assay of plasma lipids in vivo (elevation of HDL cholesterol)). Conditions: single oral dose 30 mg/kg; at 8 hr; serum HDL cholesterol relative to control.
Description: Activity of compounds of this invention in vivo can be determined by the level of elevation of HDL cholesterol relative to control by a given amount of compound in a CETP-containing animal species. A strain of transgenic mice that express both human CETP and human apolipoprotein A-1 (Taconic, Germantown, N.Y.) is used to test compounds of this invention. Test compounds are administered once orally in selected aqueous or oil based vehicles. At various times after dosing, ranging from 4 h to 24 h, blood is obtained. Blood is allowed to clot and serum is obtained by centrifugation. HDL cholesterol levels in the serum is determined by HDL-C plus reagents (Roche/Hitachi, Indianapolis, Ind.) with a clinical chemistry analyzer (Roche/Hitachi, Indianapolis, Ind.). Additional serum lipids can be analyzed by enzymatic methods. Lipids in the VLDL, LDL and HDL fractions are analyzed by enzymatic methods after precipitation or size exclusion chromatography.
For `CC(=O)N(Cc1cc(C(F)(F)F)cc(C(F)(F)F)c1)[C@H]1CCCN(C(=O)OC(C)(C)C)c2cc(C(F)(F)F)c(C)cc21` [Example 119, (S)-5-[Acetyl-(3,5-bis-trifluoromethyl-benzyl)-amino]-7-methyl-8-trifluoromethyl-2,3,4,5-tetrahydro-benzo[b]azepine-1-carboxylic acid tert-butyl ester], the “% HDL cholesterol increase” value was 123%.
